Literature values as cited in patent publication US20240293350A1, “DEVELOPMENT OF AN INNOVATIVE INHALATION FORMULATION OF NAFAMOSTAT MESYLATE FOR THE MANAGEMENT OF COVID-19” (EGE UNIVERSITESI, priority 2020, published 2024).
Structures can show the parent of a compound that is named as a salt.

What was measured:
[1] = test system: coronavirus; conditions: primary human mucociliary airway epithelial cells
[2] = test system: SARS-COV-2; conditions: administered after infection with SARS-COV-2; compared with Remdesivir
[3] = test system: SARS-COV-2; conditions: Simian Vero E6 cells infected with SARS-COV-2, cell culture
[4] = test system: NL63 virus; conditions: after infection with NL63 virus, gut-on-a-chip model; compared with Remdesivir

SMILES: N=C(N)c1ccc2cc(OC(=O)c3ccc(N=C(N)N)cc3)ccc2c1 [NM, nafamostat mesylate]
- antiviral activity [1]: demonstrated antiviral activity
- viral load [2]: decreased the viral load more than Remdesivir
- prevention of infection of cells [3]: prevent cells from being infected with the virus
- effectiveness after infection [4]: much more effective after infection with the NL63 virus than Remdesivir
